In ChEMBL document CHEMBL5380795, “Design, Synthesis, and Bioactivity Investigation of Cyclic Lipopeptide Antibiotics Containing Eight to Nine Amino Acids” (J Med Chem, 2023) one finds MIC, IC50 and selectivity ratio data, which are given here for four compounds.

Data set [1] deals with Staphylococcus aureus. As to the kind of experiment: Antibacterial activity against methicillin resistant Staphylococcus aureus ATCC 33591 assessed as inhibition of bacterial growth incubated for 18 to 24 hrs by broth microdilution method. The class given is functional. The following applies: time 18-24 hrs. (In general: Broth dilution looks for growth in wells or tubes with falling amounts of substance.)

Data set [2] concerns Staphylococcus aureus. Kind of data set: Antibacterial activity against Staphylococcus aureus ATCC 29213 assessed as inhibition of bacterial growth incubated for 18 to 24 hrs by broth microdilution method. Type of data set: functional. The following applies: time 18-24 hrs.
For data set [3], the system named is Staphylococcus epidermidis. Kind of data set: Antibacterial activity against methicillin resistant Staphylococcus epidermidis clinical isolate 19-5 assessed as inhibition of bacterial growth incubated for 18 to 24 hrs by broth microdilution method. Type of data set: functional. Particulars: time 18-24 hrs.
In data set [4] the test system is Staphylococcus epidermidis. Kind of data set: Antibacterial activity against methicillin resistant Staphylococcus epidermidis clinical isolate 19-6 assessed as inhibition of bacterial growth incubated for 18 to 24 hrs by broth microdilution method. The class given is functional. The following applies: time 18-24 hrs.
The subject of data set [5] is Escherichia coli. As to the kind of experiment: Antibacterial activity against Escherichia coli ATCC BAA-2523 assessed as inhibition of bacterial growth incubated for 18 to 24 hrs by broth microdilution method. Particulars: time 18-24 hrs. The class given is functional.
The subject of data set [6] is Escherichia coli. Kind of data set: Antibacterial activity against Escherichia coli NCTC 13353 assessed as inhibition of bacterial growth incubated for 18 to 24 hrs by broth microdilution method. Particulars: time 18-24 hrs. The class given is functional.
Data set [7] has as its system Escherichia coli. Kind of data set: Antibacterial activity against Escherichia coli clinical isolate 19-2 assessed as inhibition of bacterial growth incubated for 18 to 24 hrs by broth microdilution method. The class given is functional. Particulars: time 18-24 hrs.
For data set [8], the system named is Escherichia coli. As to the kind of experiment: Antibacterial activity against KPC producing Escherichia coli ATCC BAA-2340 assessed as inhibition of bacterial growth incubated for 18 to 24 hrs by broth microdilution method. Type of data set: functional. Particulars: time 18-24 hrs.
In data set [9] the test system is Klebsiella pneumoniae. Kind of data set: Antibacterial activity against carbapenem resistant Klebsiella pneumoniae clinical isolate 19-15 assessed as inhibition of bacterial growth incubated for 18 to 24 hrs by broth microdilution method. Particulars: time 18-24 hrs. Type of data set: functional.
Data set [10] relates to Klebsiella pneumoniae. As to the kind of experiment: Antibacterial activity against carbapenem resistant Klebsiella pneumoniae clinical isolate 19-17 assessed as inhibition of bacterial growth incubated for 18 to 24 hrs by broth microdilution method. Type of data set: functional. Particulars: time 18-24 hrs.
Data set [11] concerns Klebsiella pneumoniae. Kind of data set: Antibacterial activity against KPC producing Klebsiella pneumoniae ATCC BAA-1705 assessed as inhibition of bacterial growth incubated for 18 to 24 hrs by broth microdilution method. Type of data set: functional. Particulars: time 18-24 hrs.
The test system of data set [12] is Pseudomonas aeruginosa. As to the kind of experiment: Antibacterial activity against Pseudomonas aeruginosa clinical isolate 19-1 assessed as inhibition of bacterial growth incubated for 18 to 24 hrs by broth microdilution method. The class given is functional. The following applies: time 18-24 hrs.
Data set [13] deals with Pseudomonas aeruginosa. Kind of data set: Antibacterial activity against carbapenem resistant Pseudomonas aeruginosa clinical isolate 19-3 assessed as inhibition of bacterial growth incubated for 18 to 24 hrs by broth microdilution method. The following applies: time 18-24 hrs. The class given is functional.
The subject of data set [14] is Pseudomonas aeruginosa. Kind of data set: Antibacterial activity against carbapenem resistant Pseudomonas aeruginosa clinical isolate 17-1 assessed as inhibition of bacterial growth incubated for 18 to 24 hrs by broth microdilution method. Type of data set: functional. Particulars: time 18-24 hrs.
Data set [15] has as its system Pseudomonas aeruginosa. As to the kind of experiment: Antibacterial activity against Pseudomonas aeruginosa ATCC 27853 assessed as inhibition of bacterial growth incubated for 18 to 24 hrs by broth microdilution method. The following applies: time 18-24 hrs. The class given is functional.
Data set [16] concerns Acinetobacter baumannii. As to the kind of experiment: Antibacterial activity against carbapenem resistant Acinetobacter baumannii clinical isolate 19-8 assessed as inhibition of bacterial growth incubated for 18 to 24 hrs by broth microdilution method. The class given is functional. Particulars: time 18-24 hrs.
Data set [17] deals with Acinetobacter baumannii. Kind of data set: Antibacterial activity against oxacillinase-27 producing Acinetobacter baumannii NCTC 13304 assessed as inhibition of bacterial growth incubated for 18 to 24 hrs by broth microdilution method. The class given is functional. The following applies: time 18-24 hrs.
Data set [18] is described as follows: Cytotoxicity against human HK-2 cells assessed as inhibition of cell growth incubated for 72 hrs by CCK-8 assay. The class given is toxicity, cell-based. On the technique in general: Tetrazolium dyes change colour on reduction, which living cells bring about.
Data set [19] is described as follows: Selectivity index, ratio of IC50 for cytotoxicity against human HK-2 cells to MIC for antibacterial activity against Escherichia coli ATCC BAA-2523. The class given is toxicity, cell-based.

Converted amounts (≈) assume the structure as drawn. A value given as a limit tells only on which side of the number the result lay.

The MIC is the least concentration at which growth counts as inhibited. The term IC50 denotes the concentration needed to halve the response being measured.

As to `CCCCCCCCCC(=O)N[C@H](CCN)C(=O)N[C@H]1CCNC(=O)[C@H](CC(C)C)NC(=O)[C@H](CCN)NC(=O)[C@H](CCN)NC(=O)[C@H](Cc2ccccc2)NC(=O)[C@@H](Cc2ccccc2)NC(=O)[C@H](CCN)NC1=O`, the minimal inhibitory concentration (MIC) stood at 32 µg/mL (≈ 30.1 µM) in the data set on Staphylococcus aureus [1]; 8 µg/mL (≈ 7.53 µM) with Staphylococcus aureus [2]; 1 µg/mL (≈ 0.941 µM) in data set [3]; 1 µg/mL (≈ 0.941 µM) in data set [4]; 8 µg/mL (≈ 7.53 µM) in the data set with Escherichia coli [5]; 8 µg/mL (≈ 7.53 µM) in the data set on Escherichia coli [6]. Further, the MIC in the data set with Escherichia coli [7] was found to be 8 µg/mL (≈ 7.53 µM); with Escherichia coli [8] it was 2 µg/mL (≈ 1.88 µM); in the data set with Klebsiella pneumoniae [9], 8 µg/mL (≈ 7.53 µM); in the data set with Klebsiella pneumoniae [10], 16 µg/mL (≈ 15.1 µM); in the data set with Klebsiella pneumoniae [11], 16 µg/mL (≈ 15.1 µM); in the data set on Pseudomonas aeruginosa [12], 4 µg/mL (≈ 3.77 µM). Moreover, the MIC in the data set with Pseudomonas aeruginosa [13] came to 4 µg/mL (≈ 3.77 µM); with Pseudomonas aeruginosa [14] it was 8 µg/mL (≈ 7.53 µM); in the data set on Pseudomonas aeruginosa [15] it was 8 µg/mL (≈ 7.53 µM); in the data set with Acinetobacter baumannii [16], 16 µg/mL (≈ 15.1 µM); with Acinetobacter baumannii [17], 16 µg/mL (≈ 15.1 µM). Also, the IC50 at 72 h in data set [18] was 32.2 µg/mL (≈ 30.3 µM). Moreover, the selectivity ratio in data set [19] is 4.
As to `CCCCCCC[C@@H](O)CC(=O)N[C@@H](CCN)C(=O)N[C@H](CCN)C(=O)N[C@H]1CCNC(=O)[C@H](CC(C)C)NC(=O)[C@H](CCN)NC(=O)[C@H](CCN)NC(=O)[C@H](Cc2ccccc2)NC(=O)[C@@H](CC(C)C)NC(=O)[C@H](CCN)NC1=O`, the MIC worked out at 16 µg/mL (≈ 14 µM) in the data set with Staphylococcus aureus [1]; 8 µg/mL (≈ 6.99 µM) with Staphylococcus aureus [2]; 1 µg/mL (≈ 0.874 µM) in [3]; 4 µg/mL (≈ 3.5 µM) in [4]; 8 µg/mL (≈ 6.99 µM) with Escherichia coli [5]; 32 µg/mL (≈ 28 µM) with Escherichia coli [6]. The MIC in the data set on Escherichia coli [7] was 16 µg/mL (≈ 14 µM); in the data set with Escherichia coli [8], 16 µg/mL (≈ 14 µM); in the data set on Klebsiella pneumoniae [9], 32 µg/mL (≈ 28 µM); in the data set on Klebsiella pneumoniae [10], 64 µg/mL (≈ 55.9 µM); in the data set on Klebsiella pneumoniae [11] it was 32 µg/mL (≈ 28 µM); with Pseudomonas aeruginosa [12], 2 µg/mL (≈ 1.75 µM). Also, the MIC is 4 µg/mL (≈ 3.5 µM) in the data set on Pseudomonas aeruginosa [13]; 2 µg/mL (≈ 1.75 µM) in the data set with Pseudomonas aeruginosa [14]; 2 µg/mL (≈ 1.75 µM) in the data set with Pseudomonas aeruginosa [15]; 16 µg/mL (≈ 14 µM) in the data set with Acinetobacter baumannii [16]; 16 µg/mL (≈ 14 µM) in the data set on Acinetobacter baumannii [17]. In data set [18], the IC50 at 72 h stood at 18.5 µg/mL (≈ 16.2 µM). Also, the selectivity ratio in data set [19] worked out at 2.3.
In the case of `CCCCCCCCCC(=O)N[C@H](CCN)C(=O)N[C@H]1CCNC(=O)[C@H]([C@@H](C)O)NC(=O)[C@H](CCN)NC(=O)[C@H](CCN)NC(=O)[C@H](CC(C)C)NC(=O)[C@H](CC(C)C)NC(=O)[C@H](CCN)NC1=O`, the MIC with Staphylococcus aureus [1] is > 64 µg/mL; in the data set with Staphylococcus aureus [2], > 64 µg/mL; in [3] it was 4 µg/mL (≈ 4.07 µM); in [4], 16 µg/mL (≈ 16.3 µM); with Escherichia coli [5] it was > 64 µg/mL; in the data set with Escherichia coli [6] it was > 64 µg/mL. Further, the minimal inhibitory concentration (MIC) with Escherichia coli [7] was > 64 µg/mL; in the data set on Escherichia coli [8], 64 µg/mL (≈ 65.2 µM); in the data set on Klebsiella pneumoniae [9], > 64 µg/mL; in the data set on Klebsiella pneumoniae [10], > 64 µg/mL; in the data set on Klebsiella pneumoniae [11] it was > 64 µg/mL; in the data set on Pseudomonas aeruginosa [12], > 64 µg/mL. The MIC in the data set with Pseudomonas aeruginosa [13], in the data set with Pseudomonas aeruginosa [14], with Pseudomonas aeruginosa [15], in the data set on Acinetobacter baumannii [16] and with Acinetobacter baumannii [17] was > 64 µg/mL each time. Further, the IC50 at 72 h in [18] was 58.7 µg/mL (≈ 59.8 µM). Also, in [19], the selectivity ratio is < 0.9.
As for `CCCCCCCCCC(=O)N[C@H](CCN)C(=O)N[C@H]1CCNC(=O)[C@H](Cc2ccccc2)NC(=O)[C@H](CCN)NC(=O)[C@H](CCN)NC(=O)[C@H](Cc2ccccc2)NC(=O)[C@@H](CC(C)C)NC(=O)[C@H](CCN)NC1=O`, the MIC was 16 µg/mL (≈ 15.1 µM) with Staphylococcus aureus [1]; 8 µg/mL (≈ 7.53 µM) in the data set with Staphylococcus aureus [2]; 1 µg/mL (≈ 0.941 µM) in [3]; 1 µg/mL (≈ 0.941 µM) in data set [4]; 8 µg/mL (≈ 7.53 µM) in the data set with Escherichia coli [5]; 8 µg/mL (≈ 7.53 µM) with Escherichia coli [6]. The MIC in the data set with Escherichia coli [7] amounted to 4 µg/mL (≈ 3.77 µM); with Escherichia coli [8], 8 µg/mL (≈ 7.53 µM); in the data set with Klebsiella pneumoniae [9], 8 µg/mL (≈ 7.53 µM); in the data set with Klebsiella pneumoniae [10], 8 µg/mL (≈ 7.53 µM); with Klebsiella pneumoniae [11], 1 µg/mL (≈ 0.941 µM); with Pseudomonas aeruginosa [12] it was 4 µg/mL (≈ 3.77 µM). Further, the MIC with Pseudomonas aeruginosa [13] came to 4 µg/mL (≈ 3.77 µM); with Pseudomonas aeruginosa [14], 8 µg/mL (≈ 7.53 µM); in the data set with Pseudomonas aeruginosa [15], 8 µg/mL (≈ 7.53 µM); with Acinetobacter baumannii [16], 16 µg/mL (≈ 15.1 µM); with Acinetobacter baumannii [17], 16 µg/mL (≈ 15.1 µM). Also, the IC50 at 72 h in data set [18] was found to be 43.1 µg/mL (≈ 40.6 µM). For the same compound, the selectivity ratio in [19] was determined as 5.4.
